In patent US10421756B2, “Heterobicyclic N-aminophenyl-amides as inhibitors of histone deacetylase” (Rodin Therapeutics, Inc., priority 2015, dated 2019):

How the values were obtained:
Format in all cases: binding
HDAC2 [1] = biological target: T1, HDAC2 (Homo sapiens (Human), UniProt Q92769); assay: Reporter displacement assay (HDAC2); details: reporter probe displacement, Cheng Prusoff
Description: (§1) HDAC2 containing a C-terminal HIS-Tag (Proteros) and fluorescently-labeled anti-HIS-antibody are diluted in one vial in assay buffer 50 mM Tris, pH 8.0, 1 mM DTT, 150 mM NaCl, and 0.01% Tween20. Components are pre-incubated for 30 min, then a small volume of reporter probe (Proteros) is added from a highly concentrated stock and incubation is continued for another 30 min. Final concentrations after adding the reporter probe amount to 20 nM HDAC2, 4 nM antibody, and 180 nM probe.
Ten μl/well of pre-formed complex are transferred into 384 well assay plates (Corning). Compounds to be profiled are serially diluted from […] in DMSO and 60 nl are added to assay plates by pintool transfer (CybiWell, Cybio). Fluorescence intensity signal is read after 4 h in a Pherastar FS (BMG Labtech) at 337/665 nm.
(§2) For Kd determination, percent probe displacement values are calculated for each compound concentration and plotted against the compound concentration. IC50-like values (corresponding to 50% probe displacement) are calculated using standard fitting algorithms. Since the reporter probe is used at a concentration reflecting its own Kd value, compound Kd values can be calculated according to the Cheng Prusoff equation.
In the table, “A” indicates a Kd value of less than 0.1 μM; “B” a Kd value of between 0.1 μM and 0.5 μM; “C” a Kd value of greater than 0.5 μM and less than or equal to 5.0 μM; and “D” a Kd value of greater than 5.0 μM.

HDAC2 [2] = biological target: T1, HDAC2; assay: Reporter displacement assay (HDAC2)
HDAC1 = HDAC1 (Homo sapiens (Human), UniProt Q13547); assay: Reporter displacement assay (HDAC1); details: for Kd: reporter probe displacement, Cheng Prusoff
Description: [The procedure below names another target; the source lists this target under the same test.] as §1, with “min.” for “min. Final concentrations after adding the reporter probe amount to 20 nM HDAC2, 4 nM antibody, and 180 nM probe.”
Ten μl/well of pre-formed complex are transferred into 384 well assay plates (Corning). Compounds to be profiled are serially diluted from […] in DMSO and 60 nl are added to assay plates by pintool transfer (CybiWell, Cybio).
as §2, with “IC50-like values (corresponding to 50% probe displacement) are calculated using standard fitting algorithms.” left out

T1 sequence (Q92769 whole entry): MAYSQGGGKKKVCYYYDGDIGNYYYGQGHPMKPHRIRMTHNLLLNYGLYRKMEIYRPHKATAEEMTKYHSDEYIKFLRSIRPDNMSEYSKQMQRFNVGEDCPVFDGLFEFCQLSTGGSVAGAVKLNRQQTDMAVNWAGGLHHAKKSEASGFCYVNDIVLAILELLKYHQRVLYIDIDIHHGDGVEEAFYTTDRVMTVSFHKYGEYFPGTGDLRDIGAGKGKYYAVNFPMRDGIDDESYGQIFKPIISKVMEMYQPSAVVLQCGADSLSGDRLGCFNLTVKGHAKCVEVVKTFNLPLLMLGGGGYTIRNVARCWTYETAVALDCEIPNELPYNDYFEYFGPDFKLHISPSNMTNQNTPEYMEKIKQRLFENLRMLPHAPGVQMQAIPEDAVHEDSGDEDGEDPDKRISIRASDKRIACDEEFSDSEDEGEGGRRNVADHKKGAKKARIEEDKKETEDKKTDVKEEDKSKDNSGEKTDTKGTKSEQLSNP
HDAC1, sequence (Q13547 whole entry): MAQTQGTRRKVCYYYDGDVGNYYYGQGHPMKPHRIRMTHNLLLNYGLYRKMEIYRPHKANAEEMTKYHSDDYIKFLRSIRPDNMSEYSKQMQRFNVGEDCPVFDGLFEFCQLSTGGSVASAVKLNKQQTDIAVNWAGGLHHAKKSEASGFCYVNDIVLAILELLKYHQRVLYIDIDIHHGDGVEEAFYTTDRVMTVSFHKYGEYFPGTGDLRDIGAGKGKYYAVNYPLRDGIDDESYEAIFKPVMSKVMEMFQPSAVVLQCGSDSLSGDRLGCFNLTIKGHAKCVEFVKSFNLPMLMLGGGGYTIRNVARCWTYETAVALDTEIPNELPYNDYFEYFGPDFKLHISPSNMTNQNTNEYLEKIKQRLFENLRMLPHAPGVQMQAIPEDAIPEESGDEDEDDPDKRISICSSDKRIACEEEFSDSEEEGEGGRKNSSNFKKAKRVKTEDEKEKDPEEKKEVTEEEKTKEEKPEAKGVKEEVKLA

| SMILES | Kd (HDAC2 [1]) | residence time (HDAC2 [2]) | residence time (HDAC1) | Kd (HDAC1) |
| --- | --- | --- | --- | --- |
| Cn1cc(-c2ccc(N)c(NC(=O)N3Cc4ccncc4C3)c2)cn1 [Compound 145] | 0.1 to 0.5 µM | 1250 min | 876 min | 0.1 to 0.5 µM |
| Nc1ccc(-c2ccccn2)cc1NC(=O)N1Cc2ccncc2C1 [Compound 146] | 0.5 to 5 µM | 1280 min | 540 min | 0.1 to 0.5 µM |
| Nc1ccc(-c2ccc(F)cc2)cc1NC(=O)c1nc2c(s1)CNCC2 [Compound 147] | 0.1 to 0.5 µM | 1620 min | 1340 min | < 0.1 µM |
| Nc1ccc(-c2ccc(F)cc2)cc1NC(=O)N1CC2(CCOCC2)C1 [Compound 148] | 0.5 to 5 µM | 809 min | 233 min | 0.5 to 5 µM |
| N#Cc1ccc(-c2ccc(N)c(NC(=O)N3Cc4ccncc4C3)c2)cc1 [Compound 149] | 0.1 to 0.5 µM | 573 min | 124 min | 0.1 to 0.5 µM |
| Nc1ccc(-c2ccc(F)cc2)cc1NC(=O)c1cn2c(n1)CCCC2 [Compound 150] | 0.5 to 5 µM | 1010 min | 1080 min | 0.1 to 0.5 µM |
| Nc1ccc(-c2ccoc2)cc1NC(=O)N1Cc2ccncc2C1 [Compound 151] | < 0.1 µM | 6280 min | 1130 min | < 0.1 µM |
| CNC(=O)N1CCc2nc(C(=O)Nc3cc(-c4ccc(F)cc4)ccc3N)sc2C1 [Compound 152] | < 0.1 µM | 2330 min | 1360 min | < 0.1 µM |
| Nc1ccc(-c2ccc(F)cc2)cc1NC(=O)N1CC2(CCCCO2)C1 [Compound 153] | 0.5 to 5 µM | 1290 min | 457 min | 0.1 to 0.5 µM |
| COC(=O)N1CC2CN(C(=O)Nc3cc(-c4ccc(F)cc4)ccc3N)CC2C1 (stereo not drawn) [Compound 154] | 0.1 to 0.5 µM | 1540 min | 1350 min | 0.1 to 0.5 µM |
| CCOC(=O)N1CC2CN(C(=O)Nc3cc(-c4ccc(F)cc4)ccc3N)CC2C1 (stereo not drawn) [Compound 155] | 0.5 to 5 µM | 1720 min | 1630 min | 0.1 to 0.5 µM |
| CC(C)OC(=O)N1CC2CN(C(=O)Nc3cc(-c4ccc(F)cc4)ccc3N)CC2C1 (stereo not drawn) [Compound 156] | 0.1 to 0.5 µM | 1800 min | 1200 min | < 0.1 µM |
| CC(C)COC(=O)N1CC2CN(C(=O)Nc3cc(-c4ccc(F)cc4)ccc3N)CC2C1 (stereo not drawn) [Compound 157] | 0.1 to 0.5 µM | 1360 min | 838 min | < 0.1 µM |
| Nc1ccc(-c2ccc(F)cc2)cc1NC(=O)N1CC2CN(C(=O)OC3CC3)CC2C1 (stereo not drawn) [Compound 158] | 0.1 to 0.5 µM | 2140 min | 1220 min | < 0.1 µM |
| Nc1ccc(-c2ccc(F)cc2)cc1NC(=O)N1CC2CN(C(=O)OC3CCC3)CC2C1 (stereo not drawn) [Compound 159] | 0.1 to 0.5 µM | 2640 min | 1060 min | < 0.1 µM |

Results, then the compound that gave them:

| Kd (HDAC2 [1]) | residence time (HDAC2 [2]) | residence time (HDAC1) | Kd (HDAC1) | SMILES |
| --- | --- | --- | --- | --- |
| 0.1 to 0.5 µM | 1730 min | 848 min | 0.1 to 0.5 µM | CC(C)CC(=O)N1CC2CN(C(=O)Nc3cc(-c4ccc(F)cc4)ccc3N)CC2C1 (stereo not drawn) [Compound 160] |
| 0.1 to 0.5 µM | 2640 min | 1170 min | < 0.1 µM | CC(C)(C)OC(=O)N1CCC2(CCN(C(=O)Nc3cc(-c4ccc(F)cc4)ccc3N)CC2)C1 [Compound 161] |
| < 0.1 µM | 1340 min | 946 min | < 0.1 µM | Nc1ccc(-c2ccc(OC(F)F)cc2)cc1NC(=O)N1Cc2ccncc2C1 [Compound 162] |
| 0.1 to 0.5 µM | 2210 min | 1430 min | 0.1 to 0.5 µM | Nc1ccc(-c2ccc(F)cc2)cc1NC(=O)N1CCC2(CC1)CCN(C1COC1)C2 [Compound 164] |
| 0.1 to 0.5 µM | 1720 min | 259 min | 0.5 to 5 µM | Nc1ccc(-c2ccncc2)cc1NC(=O)N1CCC2(CC1)CCN(C1COC1)C2 [Compound 165] |
| 0.5 to 5 µM | 521 min | 84 min | 0.5 to 5 µM | CC(C)(C)OC(=O)N1CCC2(CC1)CN(C(=O)Nc1cc(-c3ccc(F)cc3)ccc1N)C2 [Compound 166] |
| 0.5 to 5 µM | 864 min | 140 min | 0.5 to 5 µM | Nc1ccc(-c2ccc(C(F)(F)F)cn2)cc1NC(=O)N1Cc2ccncc2C1 [Compound 167] |
| < 0.1 µM | 5570 min | 1380 min | < 0.1 µM | Nc1ccc(-c2ccco2)cc1NC(=O)N1Cc2ccncc2C1 [Compound 168] |
| 0.5 to 5 µM | 716 min | 120 min | 0.5 to 5 µM | Nc1ccc(-c2ccc(F)cc2)cc1NC(=O)N1CC2(CCNCC2)C1 [Compound 169] |
| 0.5 to 5 µM | 2160 min | 342 min | 0.5 to 5 µM | Nc1ccc(-c2ccc(F)cc2)cc1NC(=O)N1CC2CCNCC2C1 (stereo not drawn) [Compound 170] |
| 0.1 to 0.5 µM | 1610 min | 765 min | 0.1 to 0.5 µM | CC(C)(C)OC(=O)N1CCC2CN(C(=O)Nc3cc(-c4ccc(F)cc4)ccc3N)CC2C1 (stereo not drawn) [Compound 171] |
| 0.1 to 0.5 µM | 987 min | 299 min | 0.1 to 0.5 µM | Nc1ccc(-c2ccc(F)cc2)cc1NC(=O)N1CCC2(CCOCC2)C1 [Compound 172] |
| 0.1 to 0.5 µM | 1250 min | 1210 min | < 0.1 µM | Nc1ccc(-c2ccc(F)cc2)cc1NC(=O)N1CCC2(CCOC2)CC1 [Compound 173] |
| < 0.1 µM | 1940 min | 1350 min | < 0.1 µM | Nc1ccc(-c2ccncc2)cc1NC(=O)c1nc2c(s1)CCNC2 [Compound 174] |
| < 0.1 µM | 2710 min | 1170 min | < 0.1 µM | Nc1ccc(-c2ccc(F)cc2)cc1NC(=O)c1nc2c(s1)CCNC2 [Compound 175] |
